Data from US10414721B1, “Inhibitor of endocannabinoid cellular reuptake” (University of Bern, priority 2018, dated 2019).

Assays:
[1] = test system: BALB/c male mice; test: Hot plate test after oral administration; type: in vivo, mouse
Experimental: (§1) Acute pain was evaluated 1 h after gavage administration of WOBE437, at 10, 25, 50 and 100 mg/kg in BALB/c mice. The test was performed using a clean 54-56° C. hot plate (Thermo Scientific, USA) with a Plexiglas cylinder. The latency to show the first nociceptive response (paw lick or foot shake) was measured. In order to evaluate CB1 receptor antagonism, 5 mg/kg of rimonabant (Pharmasery AG, Switzerland) was injected intraperitoneally (i.p.) (20 μL, in DMSO) 30 min before WOBE437 administration.

[2] = Hot plate test after oral administration; type: in vivo, mouse; conditions: male, BALB/c, mouse, in vivo; from effective doses 50 mg/kg p.o. vs 10 mg/kg i.p.; read-out: overall bioavailability compared to the i.p. administration route
Experimental: as §1

[3] = test system: BALB/c mice; test: Acetic acid-induced writhing test; type: in vivo, mouse; conditions: 5 and 10 mg/kg
Experimental: (§2) WOBE437 was initially assessed in a battery of four individual tests typically associated with CB1 receptor activation in mice (nociception, locomotion, body temperature and cataleptic behavior), collectively referred to as the “tetrad”. Dose-response experiments identified 10 mg/kg as the lowest dose to elicit a moderate but complete tetrad in BALB/c mice upon intraperitoneal (i.p.) administration (FIGS. 3A-D). […] To assess whether the WOBE437-induced effects were CB1 receptor-mediated, mice were pre-treated with the selective antagonist/inverse agonist rimonabant (SR1). […] These experiments provided a proof-of-concept for the mechanism of action of WOBE437 as a novel “indirect CB1 receptor agonist”. In subsequent studies, the effects of WOBE437 in pain, inflammatory and anxiety models were investigated. […] Both effects were reversed by SR1.
(§3) WOBE437 and RX-055 were tested in independent laboratories, in different mouse strains and in multiple (behavioral) models for cannabimimetic, analgesic, anti-inflammatory and anxiolytic-effects in wild-type and phenotypical CB1-KO mice as described in Chicca 2017.

[4] = test system: BALB/c male mice; test: Endocannabinoid and NAE levels 1 h after oral administration; type: in vivo, mouse; conditions: for 2-AG level in plasma: control 16.1±2.9
Experimental: Male C57BL6/J or male BALB/c mice were orally administered by gavage with 10, 25, 50 or 100 mg/kg of WOBE437 (100 μL; olive oil and ethanol 8:2) using a metal feeding needle (20G, Kent Scientific, USA). The mice were sacrificed by decapitation after gavage administration. Brain, blood, liver, kidney and spleen were collected for the LC-MS/MS analyses. All tissues were briefly washed with ice cold PBS and immediately snap-frozen and stored at −80° C. Whole brain samples were dissected between the hemispheres. Blood samples were immediately centrifuged to obtain plasma, which was stored at −80° C.
Samples extractions and LC-MS/MS measurements were performed as previously described (Chicca et al., 2017). Briefly, tissues were weighted and transferred in to extraction tubes containing three steel beads and 0.1 M formic acid. Tissues were homogenized and rapidly transferred to glass tubes containing 1.5 mL of ethyl acetate:hexane (9:1) 0.1% formic acid and internal standards (ISs). Samples were centrifuged and the organic phase was recovered. After evaporation, the extracts were reconstituted in 200 μL of ACN:ddH2O (8:2). 10 μL of the solution were injected in the LC-MS/MS system using the same LC and ionization protocols as described (Chicca et al., 2017).

[5] = test system: C57BL6/N mice; test: Elevated plus maze (EPM); type: in vivo, mouse; conditions: 3 mg/kg
Experimental: as §2, §3

[6] = test system: AEA uptake in U937 cells; test: AEA uptake inhibition in U937 cells; type: cell-based
Experimental: Based on the natural product (2E,4E)-N-isobutylamidedodeca-2,4-dienamide from the medicinal plant E. purpurea as a starting point, a library of 634 of analogs and derivatives with varying alkyl chain length was synthesized, and structure of the head group moiety analyzed. All new derivatives were tested for AEA uptake inhibition in U937 cells using a high-content screening assay.
All radioactivity-based AEA and 2-AG uptake and release assays performed in U937, and HMC-1 cells were carried out using two different assay formats as previously reported. AEA and 2-AG uptake assay in Neuro2a and primary mouse cortical neurons were performed with a different method disclosed in Chicca 2017.

[7] = 14C-WOBE437 saturation binding to mouse brain membranes; conditions: binding kinetics, high affinity site; read-out: affinity for membrane binding site
Experimental: In addition to their effects on AEA uptake, the inhibition of FAAH was thoroughly investigated for all nanomolar inhibitors. […] The lack of significant FAAH inhibition by WOBE437 was established in different assay systems using human recombinant enzyme, cell and brain homogenates. […] Importantly, WOBE437 (1 μM) inhibited AEA uptake also in primary mouse cortical neurons by 50% after 2-7 min of incubation with a smaller inhibition (20-35%) upon longer incubation (10-20 min, FIG. 1F). […] In Neuro2a cells, incubation with WOBE437 (5 μM) for 2 and 5 min reduced overall uptake by 40%. (FIG. 1G). […] Then cells were treated with radiolabeled ^14C-WOBE437 to investigate the cellular penetration of the compound. In U937 cells, the vast majority of the radioactive signal was collected in the extracellular and membrane-bound fractions (75-90%), with negligible amounts (5-9%) detected in the intracellular fraction (FIGS. 2A-D). […] In order to further investigate this point, ^14C-WOBE437 was applied to membrane preparations generated in-house from mouse brain and U937 cells. […] The Kd values are in line with the IC50 values shown in the functional AEA uptake assays in Neuro2a and U937 cells (FIGS. 1C and 1D). In further experiments, 10 nM of ^14C-WOBE437 was co-incubated with different concentrations of AEA and U937 membranes. […] Furthermore, the endocannabinoids AEA and noladin ether and the AEA uptake inhibitor OMDM-2 could compete with ^14C-WOBE437 binding in brain and U937 membranes. […] Secondary plots of the slope (Kmapp/Vmaxapp vs. [WOBE437]) and intercept (1/Vmaxapp vs. [WOBE437]) confirmed the competitive inhibition of AEA uptake.

CCCCCCC/C=C/C=C/C(=O)NCCc1ccc(OC)c(OC)c1 [WOBE437, (2E,4E)-N-[2-(3,4-Dimethoxyphenyl)ethyl]dodeca-2,4-dienamide]
increase of pain threshold vs vehicle ([1]; 50 mg/kg p.o.): 61.7%
pain threshold (latency) ([1]; 50 mg/kg p.o., vehicle 5.8±0.9 s): 9.4 ± 1.9 s
pain threshold (latency) ([1]; 100 mg/kg p.o.): 11.7 ± 2.6 s
ED50 ([1]; Mus musculus, po, hot plate, read-out: estimated effective dose (ED50)): 42.5 ± 3.9 mg/kg
minimum dose to significantly increase pain threshold ([1]; p.o., hot plate): 50 mg/kg
antinociceptive effect after rimonabant pre-treatment ([1]; rimonabant 5 mg/kg i.p.): completely abolished
bioavailability [2]: 20%
abdominal stretches in the acetic writhing test [3]: reduced number of abdominal stretches
2-AG level in plasma ([4]; 25 mg/kg p.o.): 21.4 ± 4.5 pmol/mL
reduction of AEA concentration in plasma ([4]; 50 mg/kg p.o.): 23%
2-AG levels in somatosensory cortex ([4]; 50 mg/kg p.o., 1 h): no changes
AEA levels in somatosensory cortex ([4]; 50 mg/kg p.o., 1 h): significant increase
AEA concentration in plasma ([4]; 50 mg/kg p.o., control 2.6±0.2): 2.2 ± 0.3 pmol/mL
2-AG concentration in total brain ([4]; 50 mg/kg p.o., control 10.8±2.6): 13.9 ± 2.6 nmol/g
2-AG level in plasma ([4]; 50 mg/kg p.o.): 22.6 ± 4.8 pmol/mL
2-AG level in plasma ([4]; 100 mg/kg p.o.): 23.8 ± 5.7 pmol/mL
increase of 2-AG levels in plasma ([4]; 25, 50 and 100 mg/kg p.o.): 40%
AEA and 2-AG levels in total brain ([4]; p.o., 1 h): tendency to increase
levels of N-acylethanolamines other than AEA ([4]; somatosensory cortex, total brain or plasma): No changes
anxiolytic effect after SR1 [5]: completely blocked by SR1
number of entries and time spent in open arms ([5]; vs vehicle): significantly increased
residual AEA and 2-AG reuptake upon treatment [6]: 20-30%
selectivity for AEA uptake over FAAH / AEA hydrolysis [6]: 1000 fold
IC50 ([6]; Homo sapiens, U-937, U937 cells, 100 nM total AEA): 0.01 ± 0.008 µM
Hill slope, AEA uptake ([6]; U937 cells, multiphase AEA uptake assay): −0.715
type of AEA uptake inhibition (Michaelis-Menten analysis) ([6]; intact U937 cells): competitive
reversibility of AEA uptake inhibition ([6]; rapid dilution assay): reversible
Kd [7]: 0.01 to 0.02 µM
